Biological target: T1, human CXCR4 receptor (Homo sapiens, UniProt P61073)
T1 construct: expressed in transfected cells
Assay: Measurement of intracellular Ca+2 responses (FLIPR), antagonism of the SDF-1α response
Format: cell-based
Details: for IC50: HEK-Gqi5 cells stably expressing human CXCR4, Fluo-4 FLIPR, antagonism of SDF-1α 1.9 nM (EC65); for CXCR4 (% Inh): percent antagonism of SDF-1α 1.9 nM (EC65) response, HEK-Gqi5 human CXCR4 cells, value in brackets
Method: Measurement of Intracellular Ca^+2 Responses for CXCR4 Compounds
HEK-Gqi5 cells stably expressing the human CXCR4 receptor were utilized for these studies. The growth media for the CXCR4 receptor expressing cell line was DMEM high glucose medium supplemented with 10% fetal bovine serum (FBS), 1% antibiotic-antimycotic, 50 ug/ml hygromycin B, and 400 μg/ml geneticin. Ten thousand cells per well were plated into 384-well poly-D-lysine coated plates one day prior to use. On the day of the experiment, the cells were washed twice with Hank's Balanced Salt Solution supplemented with 20 mM hepes (HBSS/hepes buffer). The cells were then dye loaded with 2 uM Fluo-4 diluted in the HBSS/Hepes buffer and incubated at 37° C. for 40 minutes. Extracellular dye was removed by washing the cell plates four times prior to placing the plates in the FLIPR (Fluorometric Imaging Plate Reader, Molecular Devices). Ligands were diluted in HBSS/Hepes buffer and prepared in 384-well microplates. The positive control, stromal-cell derived factor-1 (SDF-1α), was diluted in HBSS/Hepes buffer with 4 mg/ml fatty acid free bovine serum albumin. Two drug additions were made by the FLIPR. The first drug addition was the test drug in concentrations ranging from 2.44 nM to 40,000 nM. After this addition, fluorescent measurements were taken. Any calcium release in response to this drug addition represents agonist activity of the compounds. The second drug addition was SDF-1α at a final concentration of 1.9 nM (EC65). Fluorescence measurements were also taken after this second drug addition and were used to determine the ability of the test compounds to antagonize the SDF-1α response. Results were expressed as EC50 and efficacy values, as well as IC50 and percent antagonism values. As controls, SDF-1α (CXCR4 agonist) and AMD3100 (CXCR4 antagonist) dose-response curves were also determined in each study.

T1 sequence (P61073 whole entry): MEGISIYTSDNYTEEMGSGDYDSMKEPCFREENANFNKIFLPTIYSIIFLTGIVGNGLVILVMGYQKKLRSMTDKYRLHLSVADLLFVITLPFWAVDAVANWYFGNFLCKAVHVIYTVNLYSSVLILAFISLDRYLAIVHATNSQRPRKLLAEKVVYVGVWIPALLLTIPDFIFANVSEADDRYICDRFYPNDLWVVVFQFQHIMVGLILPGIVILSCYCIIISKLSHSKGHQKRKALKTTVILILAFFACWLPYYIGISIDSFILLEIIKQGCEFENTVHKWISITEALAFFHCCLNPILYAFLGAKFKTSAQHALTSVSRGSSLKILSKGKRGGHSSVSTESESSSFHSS

Row | Compound | IC50 (values in nM) | CXCR4 (% Inh) | IC50 (values given in μM)
1 | CCN(CC)CCCNc1nc(NC2CCN(Cc3ccccc3N(C)C)CC2)c2cc(OC)c(OC)cc2n1 [Compound 30, N2-(3-(Diethylamino)propyl)-N4-(1-(2-(dimethylamino)benzyl)piperidin-4-yl)-6,7-dimethoxyquinazoline-2,4-diamine] | 270 nM | 100% | 
2 | CCN(CC)C(=O)CCNc1nc(NC2CCN(Cc3ccccc3N(C)C)CC2)c2cc(OC)c(OC)cc2n1 [Compound 31] |  | 92% | 2400 nM
3 | CCN(CC)CCNc1nc(NC2CCN(Cc3ccccc3N(C)C)CC2)c2cc(OC)c(OC)cc2n1 [Compound 32] | 343 nM | 90% | 
4 | COc1cc2nc(NCCCN3CCCC3)nc(NC3CCN(Cc4ccccc4N(C)C)CC3)c2cc1OC [Compound 33] | 617 nM | 93% | 
5 | CCN(CC)CCCNc1nc(NC2CCN(Cc3ccccc3N(C)C)CC2)c2ccccc2n1 [Compound 35, N2-(3-(Diethylamino)propyl)-N4-(1-(2-(dimethylamino)benzyl)piperidin-4-yl)quinazoline-2,4-diamine] | 330 nM | 90% | 
6 | CCN(CC)CCNc1nc(NC2CCN(Cc3ccccc3N(C)C)CC2)c2ccccc2n1 [Compound 36, N2-(2-(Diethylamino)ethyl)-N4-(1-(2-(dimethylamino)benzyl)piperidin-4-yl)quinazoline-2,4-diamine] | 800 nM | 90% | 
7 | CCN(CC)CCNc1nc(NC2CCN(Cc3c(OC)cccc3N(C)C)CC2)c2cc(OC)c(OC)cc2n1 [Compound 41, N2-(2-(Diethylamino)ethyl)-N4-(1-(2-(dimethylamino)-6-methoxybenzyl)piperidin-4-yl)-6,7-dimethoxyquinazoline-2,4-diamine] | 360 nM | 100% | 
8 | CCN(CC)CCCNc1nc(NC2CCN(Cc3c(OC)cccc3N(C)C)CC2)c2cc(OC)c(OC)cc2n1 [Compound 42, N2-(3-(Diethylamino)propyl)-N4-(1-(2-(dimethylamino)-6-methoxybenzyl)piperidin-4-yl)-6,7-dimethoxyquinazoline-2,4-diamine] | 179 nM | 98% | 
9 | CCN(CC)CCCNc1nc(NC2CCN(Cc3c(OC)cccc3N(C)C)CC2)c2ccccc2n1 [Compound 48, N2-(3-(Diethylamino)propyl)-N4-(1-(2-(dimethylamino)-6-methoxybenzyl)piperidin-4-yl)quinazoline-2,4-diamine] | 150 nM | 100% | 
10 | CCN(CC)CCCNc1nc(NC2CCN(Cc3ccccc3N3CCCCC3)CC2)c2cc(OC)c(OC)cc2n1 [Compound 50] |  | 86% | 6700 nM
11 | CCOP(=O)(CCCNc1nc(NC2CCN(Cc3c(OC)cccc3N(C)C)CC2)c2ccccc2n1)OCC [Compound 81, Diethyl 3-(4-(1-(2-(Dimethylamino)-6-methoxybenzyl)piperidin-4-ylamino)quinazolin-2-ylamino)propylphosphonate] |  | 99% | 1600 nM

Further lines, results first:

Row | IC50 (values in nM) | CXCR4 (% Inh) | IC50 (values given in μM) | Compound
12 |  | 92% | 1100 nM | CCN(CC)CCCNc1nc(NC2CCN(Cc3ccccc3N3CCCC3)CC2)c2cc(OC)c(OC)cc2n1 [Compound 51]
13 | 730 nM | 90% |  | COc1cc2nc(N3CCCCCC3)nc(NC3CCN(Cc4c(OC)cccc4N(C)C)CC3)c2cc1OC [Compound 52, 2-(Azepan-1-yl)-N-(1-(2-(dimethylamino)-6-methoxybenzyl)piperidin-4-yl)-6,7-dimethoxyquinazolin-4-amine]
14 |  | 93% | 4900 nM | CCN(CC)CCCNc1nc(NC2CCN(Cc3ccccc3[N+](=O)[O-])CC2)c2cc(OC)c(OC)cc2n1 [Compound 65, N2-(3-(Diethylamino)propyl)-6,7-dimethoxy-N4-(1-(2-nitrobenzyl)piperidin-4-yl)quinazoline-2,4-diamine]
15 | 200 nM | 93% |  | CCN(CC)CCCCNc1nc(NC2CCN(Cc3c(OC)cccc3N(C)C)CC2)c2ccccc2n1 [Compound 66, N2-(4-(Diethylamino)butyl)-N4-(1-(2-(dimethylamino)-6-methoxybenzyl)piperidin-4-yl)quinazoline-2,4-diamine]
16 |  | 88% | 1900 nM | CCN(CC)CCCCCNc1nc(NC2CCN(Cc3c(OC)cccc3N(C)C)CC2)c2ccccc2n1 [Compound 67, N2-(5-(Diethylamino)pentyl)-N4-(1-(2-(dimethylamino)-6-methoxybenzyl)piperidin-4-yl)quinazoline-2,4-diamine]
17 | 41 nM | 95% |  | COc1cccc(N(C)C)c1CN1CCC(Nc2nc(NCCCN(C)C)nc3ccccc23)CC1 [Compound 68, N4-(1-(2-(Dimethylamino)-6-methoxybenzyl)piperidin-4-yl)-N2-(3-(dimethylamino)propyl)quinazoline-2,4-diamine]
18 | 19 nM | 94% |  | COc1cc2nc(NCCCN(C)C)nc(NC3CCN(Cc4c(OCCN(C)C)cccc4N(C)C)CC3)c2cc1OC [Compound 76, N4-(1-(2-(Dimethylamino)-6-(2-(dimethylamino)ethoxy)benzyl)piperidin-4-yl)-N-2-(3-(dimethylamino)propyl)-6,7-dimethoxyquinazoline-2,4-diamine]
19 | 283 nM | 100% |  | COc1cc2nc(NCCCN(C)C)nc(NC3CCN(Cc4c(OC)cccc4N(C)C)CC3)c2cc1OC [Compound 78]
20 | 130 nM | 94% |  | COc1cccc(N(C)C)c1CN1CCC(Nc2nc(NCCCN)nc3ccccc23)CC1 [Compound 80, N˜2˜-(3-Aminopropyl)-N˜4˜-{1-[2-(dimethylamino)-6-methoxybenzyl]piperidin-4-yl}quinazoline-2,4-diamine]
21 | 574 nM | 95% |  | COc1cccc(N(C)C)c1CN1CCC(Nc2nc(NCc3ccccn3)nc3ccccc23)CC1 [Compound 84, N4-(1-(2-(Dimethylamino)-6-methoxybenzyl)piperidin-4-yl)-N2-(pyridin-2-ylmethyl)quinazoline-2,4-diamine]
22 |  | 93% | 4900 nM | COc1cccc(N(C)C)c1CN1CCC(Nc2nc(N3CCCC(C(N)=O)C3)nc3ccccc23)CC1 (centres unmarked) [Compound 85, 1-(4-(1-(2-(Dimethylamino)-6-methoxybenzyl)piperidin-4-ylamino)quinazolin-2-yl)piperidine-3-carboxamide]
23 |  | 86% | 3500 nM | COc1cccc(N(C)C)c1CN1CCC(Nc2nc(N3CCN(C(C)=O)CC3)nc3ccccc23)CC1 [Compound 86, 1-(4-(4-(1-(2-(Dimethylamino)-6-methoxybenzyl)piperidin-4-ylamino)quinazolin-2-yl)piperazin-1-yl)ethanone]
24 | 810 nM | 96% |  | COCCCNc1nc(NC2CCN(Cc3c(OC)cccc3N(C)C)CC2)c2ccccc2n1 [Compound 87, N4-(1-(2-(Dimethylamino)-6-methoxybenzyl)piperidin-4-yl)-N2-(3-methoxypropyl)quinazoline-2,4-diamine]
25 |  | 94% | 1900 nM | COc1cccc(N(C)C)c1CN1CCC(Nc2nc(N3CCC3)nc3ccccc23)CC1 [Compound 88, 2-(Azetidin-1-yl)-N-(1-(2-(dimethylamino)-6-methoxybenzyl)piperidin-4-yl)quinazolin-4-amine]

— patent US8193203B2, “Bicyclic compounds having activity at the CXCR4 receptor” (Allergan, Inc., priority 2008, dated 2012)
